Laboratory results as given in ChEMBL document CHEMBL5233236, “p62 as a therapeutic target for tumor” (Eur J Med Chem, 2020).

Experiments:
[1] = Inhibition of full length human GST tagged LC3 (1 to 120 residues)/p62 (unknown origin) interaction expressed in Escherichia coli BL21 Star (DE3) incubated for 2 hrs by SPR based competitive binding assay
MM1.S [2] = test: Inhibition of cell growth in human MM1.S cells; type: functional
MM1.S [3] = test: Inhibition of cell growth in human MM1.S cells incubated for 48 hrs by MTT assay; type: functional, cell-based

Row | SMILES | IC50 [1] [nM] | IC50 (MM1.S [3]) [nM] | other results
1 | O=C1CC(=O)c2ccc3c4c(ccc1c24)C(=O)CC3=O | 2000 |  | 
2 | O=C(O)CSc1cc(NS(=O)(=O)c2ccc(Br)cc2)c2ccccc2c1O | 900 |  | 
3 | Fc1ccc(COc2ccc(CNCC3CCCCC3)cc2OCc2ccc(F)cc2F)c(F)c1 |  |  | IC50 (MM1.S [2]): 840 nM
4 | OCCNCc1ccc(OCc2ccc(F)cc2)c(OCc2ccc(F)cc2)c1 |  | 4600 | 
5 | OCCNCc1ccc(OCc2ccccc2)c(OCc2ccccc2)c1 |  | 6190 | 
